As a reminder, the EC50 is the concentration that produces a half-maximal response.

Structures are written as SMILES.

The assay deals with T1, human GPR119 (Homo sapiens, UniProt Q8TDV5).
T1 construct: expression vector for human GPR119 cDNA (Acc. No. NP_848566); expressed in transfected cells
T1 sequence (Q8TDV5 1-335): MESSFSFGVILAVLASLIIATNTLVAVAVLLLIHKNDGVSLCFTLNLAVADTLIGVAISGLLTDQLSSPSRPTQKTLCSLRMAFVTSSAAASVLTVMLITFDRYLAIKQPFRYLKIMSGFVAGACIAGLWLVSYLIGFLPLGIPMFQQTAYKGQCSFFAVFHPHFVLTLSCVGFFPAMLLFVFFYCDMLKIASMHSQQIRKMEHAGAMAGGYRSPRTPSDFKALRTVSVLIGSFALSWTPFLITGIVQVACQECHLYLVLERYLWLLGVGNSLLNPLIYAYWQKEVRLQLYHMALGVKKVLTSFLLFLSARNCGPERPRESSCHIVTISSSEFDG
Description: AlphaScreen cAMP assay in Min-6/hGPR119 cells (activation of GPR119, intracellular cAMP). The assay is classed as cell-based. Conditions: MIN6 cells stably transfected with human GPR119; cAMP by AlphaScreen after 45 minutes incubation at room temperature. In a few lines:
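MIN6 cells stably expressing human GPR119, seeded 24 h before treatment; compounds applied 45 min at ~20 °C in Hepes-buffered saline pH 7.4 with 0.5 mM IBMX, 0.1% BSA, 1% DMSO final. Intracellular cAMP measured by AlphaScreen.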
On the technique in general: Alpha assays give light when donor and acceptor beads are brought close together.
`COc1cc(-c2ccc3c(c2)CC(C2CCN(C(=O)OC(C)C)CC2)O3)ccc1C#N` (stereo not drawn) [Example 119] registered an EC50 of 0.855 µM.
`CC(C)OC(=O)N1CCC(C2Cc3cc(-c4ccc5c(cnn5C)c4)ccc3O2)CC1` (stereo not drawn) [Example 120] returned an EC50 of 0.387 µM.
The result for `CC(C)OC(=O)N1CCC(C2Cc3cc(-c4ccc(NS(C)(=O)=O)cc4)ccc3O2)CC1` (stereo not drawn) [Example 121] reads 0.046 µM.
To `COCCN(C)C(=O)c1ccc(-c2ccc3c(c2)CC(C2CCN(C(=O)OC(C)C)CC2)O3)cc1` (stereo not drawn) [Example 123, 4-(5-{4-[(2-Methoxy-ethyl)-methyl-carbamoyl]-phenyl}-2,3-dihydro-benzofuran-2-yl)-piperidine-1-carboxylic acid isopropyl ester] belongs 0.03 µM; to `COCCN(C)C(=O)Cc1ccc(-c2ccc3c(c2)CC(C2CCN(C(=O)OC(C)C)CC2)O3)cc1` (stereo not drawn) [Example 124], 0.07 µM; to `CC(O)CCNC(=O)c1ccc(-c2ccc3c(c2)CC(C2CCN(C(=O)OC(C)C)CC2)O3)cc1` (stereo not drawn) [Example 125], 0.11 µM.
To `CC(O)CCNC(=O)Cc1ccc(-c2ccc3c(c2)CC(C2CCN(C(=O)OC(C)C)CC2)O3)cc1` (stereo not drawn) [Example 126] belongs 0.168 µM.
Molecule `COC1CCN(C(=O)c2ccc(-c3ccc4c(c3)CC(C3CCN(C(=O)OC(C)C)CC3)O4)cc2)CC1` (stereo not drawn) [Example 127] yielded an EC50 of 0.025 µM.
Regarding `COC1CCN(C(=O)Cc2ccc(-c3ccc4c(c3)CC(C3CCN(C(=O)OC(C)C)CC3)O4)cc2)CC1` (stereo not drawn) [Example 128], the EC50 amounted to 0.057 µM.
The result for `CC(O)CNC(=O)c1ccc(-c2ccc3c(c2)CC(C2CCN(C(=O)OC(C)C)CC2)O3)cc1` (stereo not drawn) [Example 129] reads 0.073 µM; that for `CC(O)CNC(=O)Cc1ccc(-c2ccc3c(c2)CC(C2CCN(C(=O)OC(C)C)CC2)O3)cc1` (stereo not drawn) [Example 130], 0.159 µM.
Regarding `CC(C)OC(=O)N1CCC(C2Cc3cc(-c4ccc(C(=O)N5CCC(O)C5)cc4)ccc3O2)CC1` (stereo not drawn) [Example 131], the half-maximal effective concentration (EC50) turned out to be 0.095 µM.
To `CC(C)OC(=O)N1CCC(C2Cc3cc(-c4ccc(CC(=O)N5CCC(O)C5)cc4)ccc3O2)CC1` (stereo not drawn) [Example 132] belongs 0.154 µM.
Consider `CC(C)OC(=O)N1CCC(C2Cc3cc(-c4ccc(C(=O)NCC#N)cc4)ccc3O2)CC1` (stereo not drawn) [Example 133], for which a half-maximal effect (EC50) was put at 0.104 µM.
As to `CC(C)OC(=O)N1CCC(C2Cc3cc(-c4ccc(CC(=O)NCC#N)cc4)ccc3O2)CC1` (stereo not drawn) [Example 134], the EC50 stood at 0.1 µM.
With `CC(C)OC(=O)N1CCC(C2Cc3cc(-c4ccc(C(=O)N5CC(F)(F)C5)cc4)ccc3O2)CC1` (stereo not drawn) [Example 135], the EC50 came to 0.038 µM. Against the preceding molecule, the EC50 is about 2.6-fold lower.
The result for `CC(C)OC(=O)N1CCC(C2Cc3cc(-c4ccc(CC(=O)N5CC(F)(F)C5)cc4)ccc3O2)CC1` (stereo not drawn) [Example 136] reads 0.011 µM; that for `CC(C)OC(=O)N1CCC(C2Cc3cc(-c4ccc(C(=O)NCC5COCCO5)cc4)ccc3O2)CC1` (stereo not drawn) [Example 137], 0.051 µM; that for `CC(C)OC(=O)N1CCC(C2Cc3cc(-c4ccc(CC(=O)NCC5COCCO5)cc4)ccc3O2)CC1` (stereo not drawn) [Example 138], 0.277 µM.
The result for `CC(C)OC(=O)N1CCC(C2Cc3cc(-c4ccc(C(=O)N(C)C5CCCOC5)cc4)ccc3O2)CC1` (stereo not drawn) [Example 139] reads 0.052 µM; that for `CC(C)OC(=O)N1CCC(C2Cc3cc(-c4ccc(CC(=O)N(C)C5CCCOC5)cc4)ccc3O2)CC1` (stereo not drawn) [Example 140], 0.063 µM.
`CC(C)OC(=O)N1CCC(C2Cc3cc(-c4ccc(C(=O)NCc5cocn5)cc4)ccc3O2)CC1` (stereo not drawn) [Example 141] came in with an EC50 of 0.04 µM.
To `CC(C)OC(=O)N1CCC(C2Cc3cc(-c4ccc(CC(=O)NCc5cocn5)cc4)ccc3O2)CC1` (stereo not drawn) [Example 142] belongs 0.208 µM; to `CC(C)OC(=O)N1CCC(C2Cc3cc(-c4ccc(C(=O)N5CCC(C)(O)C5)cc4)ccc3O2)CC1` (stereo not drawn) [Example 143], 0.094 µM; to `CC(C)OC(=O)N1CCC(C2Cc3cc(-c4ccc(CC(=O)N5CCC(C)(O)C5)cc4)ccc3O2)CC1` (stereo not drawn) [Example 144], 0.11 µM.
To `COC1CN(C(=O)c2ccc(-c3ccc4c(c3)CC(C3CCN(C(=O)OC(C)C)CC3)O4)cc2)C1` (stereo not drawn) [Example 145] belongs 0.038 µM; to `COC1CN(C(=O)Cc2ccc(-c3ccc4c(c3)CC(C3CCN(C(=O)OC(C)C)CC3)O4)cc2)C1` (stereo not drawn) [Example 146], 0.065 µM; to `CC(C)OC(=O)N1CCC(C2Cc3cc(-c4ccc(C(=O)NCCC(C)(C)O)cc4)ccc3O2)CC1` (stereo not drawn) [Example 147], 0.113 µM.
As for `CC(C)OC(=O)N1CCC(C2Cc3cc(-c4ccc(CC(=O)NCCC(C)(C)O)cc4)ccc3O2)CC1` (stereo not drawn) [Example 148], a half-maximal effect (EC50) was put at 0.098 µM.
To `CC(C)OC(=O)N1CCC(C2Cc3cc(-c4ccc(C(=O)N5CCOCC5)cc4)ccc3O2)CC1` (stereo not drawn) [Example 149] belongs 0.009 µM; to `CC(C)OC(=O)N1CCC(C2Cc3cc(-c4ccc(CC(=O)N5CCOCC5)cc4)ccc3O2)CC1` (stereo not drawn) [Example 150], 0.062 µM; to `CC(C)OC(=O)N1CCC(C2Cc3cc(-c4ccc(C(=O)NCC(C)(C)CO)cc4)ccc3O2)CC1` (stereo not drawn) [Example 151], 0.047 µM.
To `CC(C)OC(=O)N1CCC(C2Cc3cc(-c4ccc(CC(=O)NCC(C)(C)CO)cc4)ccc3O2)CC1` (stereo not drawn) [Example 152] belongs 0.153 µM.
Turning to `CC(C)OC(=O)N1CCC(C2Cc3cc(-c4ccc(C(=O)NCC5CCCO5)cc4)ccc3O2)CC1` (stereo not drawn) [Example 153], the EC50 was 0.017 µM.
To `CC(C)OC(=O)N1CCC(C2Cc3cc(-c4ccc(CC(=O)NCC5CCCO5)cc4)ccc3O2)CC1` (stereo not drawn) [Example 154] belongs 0.098 µM; to `CC(C)OC(=O)N1CCC(C2Cc3cc(-c4ccc(C(=O)N(C)CCO)cc4)ccc3O2)CC1` (stereo not drawn) [Example 155], 0.082 µM.
The result for `CC(C)OC(=O)N1CCC(C2Cc3cc(-c4ccc(CC(=O)N(C)CCO)cc4)ccc3O2)CC1` (stereo not drawn) [Example 156] reads 0.132 µM; that for `CC(C)OC(=O)N1CCC(C2Cc3cc(-c4ccc(C(=O)NCc5ccccn5)cc4)ccc3O2)CC1` (stereo not drawn) [Example 157], 0.034 µM; that for `CC(C)OC(=O)N1CCC(C2Cc3cc(-c4ccc(CC(=O)NCc5ccccn5)cc4)ccc3O2)CC1` (stereo not drawn) [Example 158], 0.235 µM.
The result for `CC(C)OC(=O)N1CCC(C2Cc3cc(-c4ccc(C(=O)N(C)CC#N)cc4)ccc3O2)CC1` (stereo not drawn) [Example 159] reads 0.025 µM; that for `CC(C)OC(=O)N1CCC(C2Cc3cc(-c4ccc(CC(=O)N(C)CC#N)cc4)ccc3O2)CC1` (stereo not drawn) [Example 160], 0.031 µM; that for `CC(=O)Nc1ccc(-c2ccc3c(c2)CC(C2CCN(C(=O)OC(C)C)CC2)O3)cn1` (stereo not drawn) [Example 161, 4-[5-(6-Acetylamino-pyridin-3-yl)-2,3-dihydro-benzofuran-2-yl]-piperidine-1-carboxylic acid isopropyl ester], 0.026 µM.
The molecule `CC(=O)Nc1ccc(-c2ccc3c(c2)CC(C2CCN(C(=O)OC(C)C)CC2)O3)nn1` (stereo not drawn) [Example 162, 4-[5-(6-Acetylamino-pyridazin-3-yl)-2,3-dihydro-benzofuran-2-yl]-piperidine-1-carboxylic acid isopropyl ester] came in with an EC50 of 0.483 µM. Against the preceding molecule, the EC50 is about 19-fold higher.
The result for `CC(=O)Nc1ccc(-c2ccc3c(c2)CC(C2CCN(C(=O)OC(C)C)CC2)O3)c(C)n1` (stereo not drawn) [Example 163] reads 0.296 µM; that for `CC(=O)Nc1ccc(-c2ccc3c(c2)CC(C2CCN(C(=O)OC(C)C)CC2)O3)cc1` (stereo not drawn) [Example 164], 0.089 µM.
To `Cc1c(-c2ccc3c(c2)CC(C2CCN(C(=O)OC(C)C)CC2)O3)cnn1C` (stereo not drawn) [Example 165] belongs 1.84 µM.
Consider `CC(C)OC(=O)N1CCC(C2Cc3cc(-c4cncs4)ccc3O2)CC1` (stereo not drawn) [Example 166], for which the EC50 stood at 0.19 µM.
The result for `COc1cnnc(-c2ccc3c(c2)CC(C2CCN(C(=O)OC(C)C)CC2)O3)c1` (stereo not drawn) [Example 167] reads 0.845 µM; that for `CC(C)OC(=O)N1CCC(C2Cc3cc(-c4cnn(C)c4)ccc3O2)CC1` (stereo not drawn) [Example 168], 1.91 µM.
To `CC(=O)Nc1cc(-c2ccc3c(c2)CC(C2CCN(C(=O)OC(C)C)CC2)O3)ccc1C` (stereo not drawn) [Example 169] belongs 3.14 µM; to `CC(C)OC(=O)N1CCC(C2Cc3cc(-c4ccc(C#N)s4)ccc3O2)CC1` (stereo not drawn) [Example 170], 0.062 µM.
The result for `Cc1nn(C)cc1-c1ccc2c(c1)CC(C1CCN(C(=O)OC(C)C)CC1)O2` (stereo not drawn) [Example 171] reads 0.582 µM; that for `CC(C)OC(=O)N1CCC(C2Cc3cc(-c4ccc(CN(C)S(C)(=O)=O)cc4)ccc3O2)CC1` (stereo not drawn) [Example 172], 0.288 µM.
As for `CC(C)OC(=O)N1CCC(C2Cc3cc(-c4cnc(NC(=O)C(C)(C)C)s4)ccc3O2)CC1` (stereo not drawn) [Example 173], the midpoint of the response, the EC50, lay at 0.373 µM.
The molecule `CNc1ncc(-c2ccc3c(c2)CC(C2CCN(C(=O)OC(C)C)CC2)O3)cn1` (stereo not drawn) [Example 174] registered an EC50 of 0.61 µM.
With `COc1cnc(-c2ccc3c(c2)CC(C2CCN(C(=O)OC(C)C)CC2)O3)nc1` (stereo not drawn) [Example 175], the EC50 came to 3.31 µM.
Consider `CC(C)OC(=O)N1CCC(C2Cc3cc(-c4cnccn4)ccc3O2)CC1` (stereo not drawn) [Example 176], for which a half-maximal response (EC50) required 0.489 µM.
The result for `CC(=O)Nc1ncc(-c2ccc3c(c2)CC(C2CCN(C(=O)OC(C)C)CC2)O3)s1` (stereo not drawn) [Example 177] reads 0.201 µM; that for `CC(=O)Nc1nc(C)c(-c2ccc3c(c2)CC(C2CCN(C(=O)OC(C)C)CC2)O3)s1` (stereo not drawn) [Example 178], 1.2 µM; that for `COc1cc(-c2ccc3c(c2)CC(C2CCN(C(=O)OC(C)C)CC2)O3)ccc1NC(C)=O` (stereo not drawn) [Example 179], 0.118 µM.

Values taken from US8669271B2 (Boehringer Ingelheim International GmbH, priority 2010, dated 2014).
